# Reference: article PMC9145865, “Effects of Rare Phytocannabinoids on the Endocannabinoid System of Human Keratinocytes” (International Journal of Molecular Sciences, 2022)
# What was measured:
# skin = tested on: skin; design: method as in PMID 35056807; settings: applied topically; ref [59]; cited from earlier work
# [1] = tested on: transformed human keratinocytes; design: method as in PMID 17157480; settings: hyperproliferative conditions; ref [46]; cited from earlier work
# MAGL = assay: qRT-PCR gene expression of MAGL; assay type: cell-based, human; settings: HaCaT cells, half-IC50 dose, 24 h, vs. control
# Protocol: (§1) The HaCaT cells were seeded into 6-well plates at a density of 4 × 10^4 per well, incubated overnight and then treated with the selected pCBs (CBG (6.0 µM), CBC (4.0 µM), THCV (9.0 µM) and CBGA (13.0 µM)) for 24 h. The cell pellets were collected and RT-PCR reactions were performed using the RevertAid H Minus First Strand cDNA Synthesis Kit. The relative abundance was assessed via RT quantitative PCR (RT-qPCR) using the SensiFAST SYBR Lo-ROX Kit in an Applied Biosystems 7500 Fast Real-Time PCR System (Life Technologies). To provide the precise quantification of the initial target in each PCR reaction, the amplification plot was examined, as well as the point of early log phase of the product accumulation, which was defined by assigning a fluorescence threshold above the background that was defined as the threshold cycle number or “Ct. Differences” in threshold cycle number that was used to quantify the relative amount of the PCR targets that were contained within each tube. After PCR, a dissociation curve (melting curve) was constructed in the range of 60 °C to 95 °C [62] to evaluate the specificity of the amplification products. The relative expression of the different amplicons was calculated using the delta–delta Ct (ΔΔCt) method and then converted into the relative expression ratio (2^−ΔΔCt) for statistical analysis. […]
# FAAH = assay: qRT-PCR gene expression of FAAH; assay type: cell-based, human; settings: HaCaT cells, half-IC50 dose, 24 h, vs. control
# Protocol: as §1
# NAPE-PLD = NAPE-PLD activity assay in homogenates of treated cells; assay type: cell-based, human; settings: HaCaT cells, half-IC50 amount, 24 h, vs. control
# Protocol: NAPE-PLD: The HaCaT cells were seeded into 6-well plates at a density of 4 × 10^4 per well, incubated overnight and then treated with the selected pCBs (6.0 µM of CBG, 4.0 µM of CBC, 9.0 µM of THCV and 13.0 µM of CBGA) for 24 h. The cell pellets were collected and NAPE-PLD activity was determined in the homogenates of the cells after 24 h of treatment with each pCB. Then, the homogenates were incubated in a reaction mixture that contained 50 mM of Tris–HCl, 0.05% Triton X-100 pH 8.0 and 10 µM of fluorogenic substrate PED6 (N-((6-(2,4-Dinitrophenyl)amino)hexanoyl)-2(4,4-Difluoro-5,7-Dimethyl-4-Bora-3a,4a-Diaza-s-Indacene-3-Pentanoyl)-1-Hexadecanoyl-sn-Glycero-3 Phosphoethanolamine, Triethylammonium Salt). The homogenates were pre-incubated with the specific NAPE-PLD inhibitor ARN19874 at 3.8 mM [65] (Cayman Chemical, Ann Arbor, MI, USA) for 30 min at room temperature in order to fully erase the enzyme activity as a control. Fluorescence values were measured with excitation at λ = 485–488 nm and emission at λ = 530 nm at 37 °C by means of continuity kinetics at 30-sec intervals for 30 min in an Enspire multimode plate reader (Perkin Elmer, Waltham, MA, USA), as reported in [66]. NAPE-PLD activity was expressed as florescence intensity (arbitrary units, AU) per min per mg of protein.
SMILES,skin health after topical application (skin),proliferation of transformed human keratinocytes [1],gene expression of MAGL (in words) (MAGL),Gene Expression FAAH (FAAH),gene expression of FAAH (in words) (FAAH),activity of NAPE-PLD (NAPE-PLD)
"CCCCCc1cc(O)c(C/C=C(\C)CCC=C(C)C)c(O)c1 [CBG, cannabigerol]",reducing the appearance of redness and improving barrier function,inhibit the proliferation,significantly increase,,,
"CCCCCc1cc(O)c(C/C=C(\C)CCC=C(C)C)c(O)c1C(=O)O [CBGA, cannabigerolic acid]",,,,FAAH ↓+++,significantly reduced,significantly increased
